Data reported in patent US20180049438A1, “NITRIFICATION INHIBITOR COMPOSITIONS AND METHODS FOR PREPARING THE SAME” (DOW AGROSCIENCES LLC, priority 2014, published 2018).

Test: Solubility properties of the water soluble polar solvents (nitrapyrin solubility, water solubility)
Settings: water solubility of the polar solvent

## COC(C)COC(C)CO (stereo not shown) [Dowanol DPM, dipropylene glycol monomethyl ether]
  water solubility: 100%
